Measurements published in US10604555B2, “GIP derivatives and uses thereof” (priority 2018, dated 2020).
*1 amine or outer side, *2 acyl side, *3 side chain or, on linkers, in order; H or OH if unused. Where a SMILES comes first, the peptide text is derived from it. Side-chain parts run from the residue outwards. [ ]: non-standard residue; d: D form. The star is where a group is joined. C18 diacid = O=C(O)CCCCCCCCCCCCCCCCC(=O)*; γGlu = O=C(O)[C@H](CCC(=O)[*:2])N[*:1]; Nle = CCCC[C@H](N)C(=O)O; Aib = CC(C)(N)C(=O)O

Target: T1, human GIP receptor (Homo sapiens, UniProt P48546)
T1 construct: expressed in transfected cells; host or cells: BHK (parent line BHKTS13), BHK CRE luc2P hGIPR clone #5
T1 sequence (P48546 22-466): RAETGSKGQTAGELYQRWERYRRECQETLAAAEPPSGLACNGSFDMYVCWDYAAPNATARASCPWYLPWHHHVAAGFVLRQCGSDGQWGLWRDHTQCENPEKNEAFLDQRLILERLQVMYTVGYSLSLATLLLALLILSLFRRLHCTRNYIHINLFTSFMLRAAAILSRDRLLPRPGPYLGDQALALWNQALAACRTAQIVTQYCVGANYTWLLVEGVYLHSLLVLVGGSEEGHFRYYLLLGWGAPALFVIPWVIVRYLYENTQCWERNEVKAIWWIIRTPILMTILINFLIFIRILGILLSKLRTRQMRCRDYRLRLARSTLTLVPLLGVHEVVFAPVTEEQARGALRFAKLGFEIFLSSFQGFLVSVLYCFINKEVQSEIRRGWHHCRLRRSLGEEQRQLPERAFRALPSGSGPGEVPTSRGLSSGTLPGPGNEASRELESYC
Test: In vitro potency (CRE luciferase; whole cells), BHK CRE luc2P hGIPR
Assay type: cell-based
Conditions: 0.2% HSA
Experimental: In Vitro Potency (CRE Luciferase; Whole Cells)
The in vitro potency is the measure of human GIP, GLP-1 or glucagon receptor activation, respectively, in a whole cell assay.
In vitro potency was determined by measuring the response of the human GIP, GLP-1 or glucagon receptor in a reporter gene assay in individual cell lines. […] When the respective receptor is activated it results in the production of cAMP, which in turn results in the luciferase protein being expressed. When assay incubation is completed the luciferase substrate (luciferin) is added and the enzyme converts luciferin to oxyluciferin to produce bioluminescence. The luminescence is measured as the readout for the assay.
The cells were derived from a clone containing the CRE luciferase element and were established by further transfection with the respective receptor to obtain the current clone.
The cells were cultured at 5% CO2 in Cell Culture Medium. They were aliquoted and stored in liquid nitrogen. The cells were kept in passage and were seeded out the day before each assay.
The Assay Buffer consisted of 1% ovalbumin and 0.1% Pluronic F-68 in Assay Medium with the addition of human serum albumin at twice the indicated concentrations.
1) Cells were plated at 5000 cells/well and incubated overnight.
2) Cells were washed three times in PBS.
3) Assay Medium (50 μl aliquot) with or without serum albumin was added to each well in the assay plate.
4) Stocks of the test compounds and reference compounds were diluted to a concentration of 0.2 μM in Assay Buffer. […] 8) The cells were washed three times with PBS plus some liquid in each well. 9) A 100 μl aliquot of steadylite plus reagent was added to each well of the assay plate (reagent was light sensitive). 10) Each assay plate was covered with aluminum foil to protect it from light and shaken for 30 min at room temperature. 11) Each assay plate was read in a microtiter plate reader. Calculations and Results
The data from the microtiter plate reader was transferred to GraphPad Prism software. The software performs a non-linear regression (log(agonist) vs response).
A minimum of two replicates was measured for each sample. The reported values are averages of the replicates.

Row | EC50 | Compound
1 | 49.9 pM | CCCC[C@H](NC(=O)[C@H](C)NC(=O)[C@@H](NC(=O)[C@H](CO)NC(=O)[C@H](Cc1ccc(O)cc1)NC(=O)[C@H](CC(=O)O)NC(=O)[C@H](CO)NC(=O)[C@@H](NC(=O)[C@H](Cc1ccccc1)NC(=O)[C@@H](NC(=O)CNC(=O)[C@H](CCC(=O)O)NC(=O)C(C)(C)NC(=O)[C@@H](N)Cc1ccc(O)cc1)[C@@H](C)O)[C@@H](C)CC)[C@@H](C)CC)C(=O)N[C@@H](CC(=O)O)C(=O)N[C@@H](CCCCN)C(=O)N[C@H](C(=O)N[C@@H](Cc1c[nH]cn1)C(=O)N[C@@H](CCC(N)=O)C(=O)N[C@@H](CCC(N)=O)C(=O)N[C@@H](CC(=O)O)C(=O)N[C@@H](Cc1ccccc1)C(=O)N[C@H](C(=O)N[C@@H](CCCCNC(=O)CC[C@H](NC(=O)CC[C@H](NC(=O)CC[C@H](NC(=O)CCCCCCCCCCCCCCCCC(=O)O)C(=O)O)C(=O)O)C(=O)O)C(=O)N[C@@H](Cc1c[nH]c2ccccc12)C(=O)N[C@@H](CC(C)C)C(=O)N[C@@H](CC(C)C)C(=O)N[C@@H](C)C(=O)N[C@@H](CCC(N)=O)C(=O)N[C@@H](CCCCN)C(=O)NCC(=O)O)C(C)C)[C@@H](C)CC [Compound 2, N{Epsilon-24}-[(4S)-4-carboxy-4-[[(4S)-4-carboxy-4-[[(4S)-4-carboxy-4-(17-carboxyheptadecanoylamino)butanoyl]amino]butanoyl]amino]butanoyl]-[Aib2,Nle14,Lys24]-hGIP(1-31)] (H-Y[Aib]EGTFISDYSIA[Nle]DKIHQQDFVK([γGlu-γGlu-γGlu-C18 diacid])WLLAQKG-OH)
2 | 62.9 pM | CCCC[C@H](NC(=O)[C@H](C)NC(=O)[C@@H](NC(=O)[C@H](CO)NC(=O)[C@H](Cc1ccc(O)cc1)NC(=O)[C@H](CC(=O)O)NC(=O)[C@H](CO)NC(=O)[C@@H](NC(=O)[C@H](Cc1ccccc1)NC(=O)[C@@H](NC(=O)CNC(=O)[C@H](CCC(=O)O)NC(=O)C(C)(C)NC(=O)[C@@H](N)Cc1ccc(O)cc1)[C@@H](C)O)[C@@H](C)CC)[C@@H](C)CC)C(=O)N[C@@H](CC(=O)O)C(=O)N[C@@H](CCCCN)C(=O)N[C@H](C(=O)N[C@@H](CCCNC(=N)N)C(=O)N[C@@H](CCC(N)=O)C(=O)N[C@@H](CCC(=O)O)C(=O)N[C@@H](CC(=O)O)C(=O)N[C@@H](Cc1ccccc1)C(=O)N[C@H](C(=O)N[C@@H](CCCCNC(=O)CC[C@H](NC(=O)CC[C@H](NC(=O)CC[C@H](NC(=O)CCCCCCCCCCCCCCCCC(=O)O)C(=O)O)C(=O)O)C(=O)O)C(=O)N[C@@H](Cc1c[nH]c2ccccc12)C(=O)N[C@@H](CC(C)C)C(=O)N[C@@H](CC(C)C)C(=O)N[C@@H](C)C(=O)N[C@@H](CCC(N)=O)C(=O)N[C@@H](CCCCN)C(=O)NCC(=O)O)C(C)C)[C@@H](C)CC [Compound 9, N{Epsilon-24}-[(4S)-4-carboxy-4-[[(4S)-4-carboxy-4-[[(4S)-4-carboxy-4-(17-carboxyheptadecanoylamino)butanoyl]amino]butanoyl]amino]butanoyl]-[Aib2,Nle14,Arg18,Glu20,Lys24]-hGIP(1-31)] (H-Y[Aib]EGTFISDYSIA[Nle]DKIRQEDFVK([γGlu-γGlu-γGlu-C18 diacid])WLLAQKG-OH; N-terminus and C-terminus assumed)
